Experimental data from patent publication US20200054563A1, “PHARMACEUTICAL COMPOSITION FOR IN VIVO DELIVERY, METHOD OF PREPARATION OF A SUBSTANTIALLY WATER-INSOLUBLE PHARMACOLOGICALLY ACTIVE AGENT FOR IN VIVO DELIVERY, AND METHOD OF TREATING DISEASE” (ZY Therapeutics Inc., priority 2017, published 2020).

Assay: Stability of the drug substance during the homogenization process (HPLC spectra)
Assay type: physicochemical
Details: nanosuspension prepared at pH 7.2 without pH change; additional peak in HPLC spectra (FIG. 2C), in some cases
Procedure: The formulation was filtered through a 0.22 μm membrane for sterilization. The Paclitaxel content before and after filtration was measured by HPLC. […] The split peak in HPLC may indicate the degradation of the drug during the process.

stability of the drug substance during the process: not stable during the process
Compound: CC(=O)O[C@H]1C(=O)[C@@]2(C)[C@H]([C@H](OC(=O)c3ccccc3)[C@]3(O)C[C@H](OC(=O)[C@H](O)[C@@H](NC(=O)c4ccccc4)c4ccccc4)C(C)=C1C3(C)C)[C@]1(OC(C)=O)CO[C@@H]1C[C@@H]2O [Paclitaxel]
